Among the data in ChEMBL document CHEMBL5532655, “Discovery of (R)-4-(8-methoxy-2-methyl-1-(1-phenylethy)-1H-imidazo[4,5-c]quinnolin-7-yl)-3,5-dimethylisoxazole as a potent and selective BET inhibitor for treatment of acute myeloid leukemia (AML) guided by FEP calculation” (Eur J Med Chem, 2024) are IC50 values, retold here.

Structures are written as SMILES. Bounds are passed on as bounds.

Common to all, as to assay: cells
One test concerns MV4-11. The following applies: Homo sapiens, MV4-11, 48 h.
Another test relates to MOLM-13. As to conditions: Homo sapiens, MOLM-13, 48 h.
For the next test, the system named is Jurkat. The following applies: Homo sapiens, 48 h.
In the next test the test system is MM1.S. The following applies: Homo sapiens, 48 h.

Description for Jurkat: Antiproliferative activity against human Jurkat cells assessed as inhibition of cell growth incubated for 48 hrs by MTT assay
Description for MM1.S: Antiproliferative activity against human MM1.S cells assessed as inhibition of cell growth incubated for 48 hrs by MTT assay
Description for MOLM-13: Antiproliferative activity against human MOLM-13 cells assessed as inhibition of cell growth incubated for 48 hrs by MTT assay
Description for MV4-11: Antiproliferative activity against human MV4-11 cells assessed as inhibition of cell growth incubated for 48 hrs by MTT assay

For orientation: IC50 means the concentration that gives 50% inhibition. Read a high IC50 as weaker potency. Regarding `COc1cc2c(cc1-c1ccc(C(F)(F)F)cc1)ncc1nc(C)n([C@@H](C)c3ccccc3)c12`, the IC50 is 5 µM in the test on MV4-11, 0.91 µM in the test on MOLM-13, 16.4 µM in the test on Jurkat and 11.9 µM with MM1.S.
For `COc1cc2c(cc1-c1c(C)n[nH]c1C)ncc1nc(C)n([C@H](C)c3ccccn3)c12`, in that order: 10.9 µM, 0.44 µM, above 20 µM and above 20 µM.
Taken in the same sequence, the figures for `COc1ccc(-n2c(C)nc3cnc4cc(-c5ccc(F)cc5)c(OC)cc4c32)cc1` were 11 µM, above 20 µM, above 20 µM and above 20 µM.
Regarding `COc1cc2c(cc1-c1ccc(C(C)=O)cc1)ncc1nc(C)n([C@@H](C)c3ccccc3)c12`, the IC50 was 12.5 µM with MV4-11, 4.73 µM in the test on MOLM-13, 12.9 µM with Jurkat and 11.6 µM with MM1.S.
On to `COc1ccc(-n2c(C)nc3cnc4cc(-c5ccc(C)cc5)c(OC)cc4c32)cc1`, for which the IC50 in the test with MV4-11 is above 20 µM; in the test on MOLM-13, above 20 µM; in the test with Jurkat, above 20 µM; in the test with MM1.S, 6.34 µM.
Turning to `COc1cc2c(cc1-c1cc(C)cc(C)c1)ncc1nc(C)n([C@@H](C)c3ccccc3)c12`, the IC50 in the test with MV4-11 is 6.24 µM; in the test with MOLM-13, above 20 µM; with Jurkat, above 20 µM; in the test on MM1.S it was 5.92 µM.
For `COc1ccc(-c2cc3ncc4nc(C)n([C@@H](C)c5ccccc5)c4c3cc2OC)cc1`, the IC50 in the test with MV4-11 was found to be 13.1 µM; with MOLM-13, 4.12 µM; in the test with Jurkat it was 5.46 µM; with MM1.S, 4.84 µM.
Taken in the same sequence, the figures for `COc1cc2c(cc1-c1ccc(C)cc1)ncc1nc(C)n([C@@H](C)c3ccccc3)c12` were 8.3 µM, 4.99 µM, above 20 µM and 6.02 µM.
For `COc1ccc(-c2cc3ncc4nc(C)n(-c5ccc(OC)cc5)c4c3cc2OC)cc1`, in that order: 4.41 µM, 15.6 µM, above 20 µM and 12.5 µM.
In the case of `COc1cc2c(cc1-c1ccc(N)nc1)ncc1nc(C)n([C@@H](C)c3ccccc3)c12`, the half-maximal inhibitory concentration (IC50) was determined as 1.4 µM in the test with MV4-11, 4.74 µM with MOLM-13, 15.2 µM in the test with Jurkat and 5.69 µM with MM1.S.
For `COc1cc2c(cc1-c1c(C)noc1C)ncc1nc(C)n([C@H](C)c3ccccn3)c12`, in that order: 1.29 µM, 6.4 µM, 16.1 µM and 3.55 µM.
Taken in the same sequence, the figures for `COc1ccc(-n2c(C)nc3cnc4cc(-c5cnn(C)c5)c(OC)cc4c32)cc1` were 9.71 µM, above 20 µM, above 20 µM and 3.23 µM.
For `COc1cc2c(cc1-c1ccc3nc[nH]c3c1)ncc1nc(C)n([C@@H](C)c3ccccc3)c12`, in that order: 10.4 µM, 19.1 µM, above 20 µM and 8.69 µM.
For the compound `COc1ccc(-n2c(C)nc3cnc4cc(-c5cnc(N)nc5)c(OC)cc4c32)cc1`, the IC50 in the test on MV4-11, with MOLM-13, in the test with Jurkat and in the test on MM1.S was above 20 µM in each case.
Consider `COc1cc2c(cc1-c1c(C)noc1C)ncc1nc(C)n(-c3ccc(C#N)cc3)c12`, for which the IC50 is 4.63 µM with MV4-11, 12.8 µM with MOLM-13, above 20 µM in the test with Jurkat and 2.34 µM with MM1.S.
For `COc1ccc(-n2c(C)nc3cnc4cc(-c5ccc(C(C)=O)cc5)c(OC)cc4c32)cc1`, in that order: 11.1 µM, above 20 µM, above 20 µM and 12.4 µM.
Taken in the same sequence, the figures for `COc1cc2c(cc1-c1c(C)noc1C)ncc1nc(C)n(-c3ccc(CC#N)cc3)c12` were 1.05 µM, 10.1 µM, above 20 µM and 7.06 µM.
Taken in the same sequence, the figures for `COc1cc2c(cc1-c1ccc(C#N)cc1)ncc1nc(C)n([C@@H](C)c3ccccc3)c12` were 5 µM, 10.1 µM, 4.53 µM and 9.09 µM.
Turning to `COc1ccncc1-c1cc2ncc3nc(C)n([C@@H](C)c4ccccc4)c3c2cc1OC`, the IC50 was above 20 µM in the test with MV4-11, 10.9 µM in the test with MOLM-13, above 20 µM with Jurkat and 7.4 µM in the test with MM1.S.
In the case of `COc1cc2c(cc1-c1c(C)noc1C)ncc1nc(C)n([C@@H](C)c3ccccc3)c12`, the IC50 was 2.02 µM in the test on MV4-11, 12.5 µM with MOLM-13, 16.6 µM with Jurkat and 11.2 µM in the test with MM1.S.
For `COc1ccc(-n2c(C)nc3cnc4cc(-c5ccc(N)nc5)c(OC)cc4c32)cc1`, in that order: 9.21 µM, 11.3 µM, 11.2 µM and 5.78 µM.
Regarding `COc1ccc(-n2c(C)nc3cnc4cc(-c5cc(C)cc(C)c5)c(OC)cc4c32)cc1`, the IC50 is above 20 µM in the test on MV4-11, above 20 µM in the test with MOLM-13, above 20 µM with Jurkat and 12 µM with MM1.S.
Consider `COc1cc2c(cc1-c1ccc(O)cc1)ncc1nc(C)n([C@@H](C)c3ccccc3)c12`, for which the IC50 with MV4-11 is 2.25 µM; in the test on MOLM-13, 8.42 µM; with Jurkat it was above 20 µM; in the test with MM1.S it was 5.79 µM.
For `COc1cc2c(cc1-c1cnn(C)c1)ncc1nc(C)n([C@H](C)c3ccccc3)c12`, in that order: 6.83 µM, above 20 µM, above 20 µM and 6.9 µM.
For `COc1cc2c(cc1-c1c(C)n[nH]c1C)ncc1nc(C)n([C@@H](C)c3ccccc3)c12`, in that order: 0.53 µM, 13.1 µM, 16.5 µM and 8.92 µM.
For `COc1ccc(-n2c(C)nc3cnc4cc(-c5ccc(C(F)(F)F)cc5)c(OC)cc4c32)cc1`, in that order: 5.64 µM, above 20 µM, above 20 µM and above 20 µM.
Take `COc1ccc(-n2c(C)nc3cnc4cc(-c5ccc6nc[nH]c6c5)c(OC)cc4c32)cc1`: the IC50 with MV4-11 is 5.33 µM; with MOLM-13, above 20 µM; in the test with Jurkat it was 17.2 µM; in the test with MM1.S, 5.8 µM.
For `COc1cc2c(cc1-c1cnc3[nH]ccc3c1)ncc1nc(C)n(C(C)c3ccccc3)c12` (configuration not stated), in that order: 6.13 µM, 6.85 µM, 15.6 µM and 10.1 µM.
Taken in the same sequence, the figures for `COc1ccc(-n2c(C)nc3cnc4cc(-c5cnccc5OC)c(OC)cc4c32)cc1` were above 20 µM, above 20 µM, above 20 µM and 5.67 µM.
For `COc1cc2c(cc1-c1cnn(C)c1)ncc1nc(C)n([C@H](C)c3ccccn3)c12`, the half-maximal inhibitory concentration (IC50) in the test on MV4-11 stood at 2.6 µM; in the test on MOLM-13, 3.55 µM; in the test with Jurkat, 9.87 µM; in the test on MM1.S, 5.84 µM.
Taken in the same sequence, the figures for `COc1ccc(-n2c(C)nc3cnc4cc(-c5ccc(O)cc5)c(OC)cc4c32)cc1` were 4.96 µM, 18.3 µM, 15 µM and 2.44 µM.
As for `COc1cc2c(cc1-c1ccc(F)cc1)ncc1nc(C)n([C@@H](C)c3ccccc3)c12`, the IC50 is 2.85 µM in the test with MV4-11, 2.49 µM with MOLM-13, above 20 µM with Jurkat and 9.48 µM in the test on MM1.S.
Taken in the same sequence, the figures for `COc1ccc(-n2c(C)nc3cnc4cc(-c5cnc6[nH]ccc6c5)c(OC)cc4c32)cc1` were 18.6 µM, above 20 µM, 4.71 µM and 13 µM.
With `COc1ccc(-n2c(C)nc3cnc4cc(-c5ccc(C#N)cc5)c(OC)cc4c32)cc1`, the IC50 in the test on MV4-11 was 5.39 µM; in the test with MOLM-13, above 20 µM; in the test on Jurkat, above 20 µM; with MM1.S, 7.9 µM.
`COc1ccc(-n2c(C)nc3cnc4cc(-c5c(C)noc5C)c(OC)cc4c32)cc1`: the IC50 was 1.22 µM in the test with MV4-11, 11.6 µM in the test on MOLM-13, above 20 µM with Jurkat and 9.3 µM in the test on MM1.S.
For `COc1ccc(-n2c(C)nc3cnc4cc(-c5ccc6[nH]ccc6c5)c(OC)cc4c32)cc1`, in that order: 9.93 µM, above 20 µM, 15.1 µM and 9.8 µM.
Regarding `COc1cc2c(cc1-c1cnc(N)nc1)ncc1nc(C)n([C@@H](C)c3ccccc3)c12`, the IC50 in the test with MV4-11 is above 20 µM; with MOLM-13, above 20 µM; in the test with Jurkat, above 20 µM; in the test on MM1.S, 9.23 µM.
For the compound `COc1ccc(-n2c(C)nc3cnc4cc(-c5ccc(N)cc5)c(OC)cc4c32)cc1`, the IC50 in the test with MV4-11 was above 20 µM; in the test with MOLM-13 it was above 20 µM; with Jurkat, above 20 µM; in the test with MM1.S, 9.8 µM.
Regarding `COc1cc2c(cc1-c1ccc3[nH]ccc3c1)ncc1nc(C)n([C@@H](C)c3ccccc3)c12`, the IC50 with MV4-11 was 2.21 µM; in the test with MOLM-13, 9.7 µM; in the test with Jurkat, above 20 µM; with MM1.S, 13.7 µM.
For `COc1ccc(-n2c(C)nc3cnc4cc(-c5c(C)n[nH]c5C)c(OC)cc4c32)cc1`, in that order: 10.6 µM, above 20 µM, above 20 µM and 3.12 µM.
As for `COc1ccc(-n2c(C)nc3cnc4cc(-c5ccc(OC)c(CO)c5)c(OC)cc4c32)cc1`, the IC50 is 17.9 µM in the test with MV4-11, above 20 µM with MOLM-13, above 20 µM with Jurkat and 11 µM with MM1.S.
Regarding `COc1cc2c(cc1-c1c(C)noc1C)ncc1nc(C)n(C3CCOCC3)c12`, the IC50 in the test on MV4-11 is 1.02 µM; in the test on MOLM-13, 5.15 µM; in the test with Jurkat it was above 20 µM; in the test on MM1.S it was 1.85 µM.
For `COc1ccc(-c2cc3ncc4nc(C)n([C@@H](C)c5ccccc5)c4c3cc2OC)cc1CO`, in that order: 18 µM, above 20 µM, above 20 µM and 13.5 µM.
